In PubChem BioAssay (NCI):
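Method: 48-hour compound exposure of cells in 96-well plates, five concentrations, linear interpolation of endpoints. TGI denotes the concentration required for complete inhibition of growth.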

Assays:
Experiment in all cases: NCI tumour cell line growth inhibition, 48 h
A549 NSCLC = test system: A549 NSCLC
ACHN renal = test system: ACHN renal
BT-549 breast = test system: BT-549 breast
DU-145 prostate = test system: DU-145 prostate
HT29 colon = test system: HT29 colon
KM12 colon = test system: KM12 colon
NCI-H226 lung = test system: NCI-H226 lung
NCI-H522 lung = test system: NCI-H522 lung
NCI/ADR-RES ovarian = test system: NCI/ADR-RES ovarian
SK-MEL-5 melanoma = test system: SK-MEL-5 melanoma
SK-OV-3 ovarian = test system: SK-OV-3 ovarian

Structure (SMILES): Cc1ccc2c(c1)C1(C)OC(C=CC1=O)O2 (stereo not given)
- TGI (A549 NSCLC): 10.1 µM
- TGI (ACHN renal): 1.73 µM
- TGI (BT-549 breast): 1.57 µM
- TGI (DU-145 prostate): 8.45 µM
- TGI (HT29 colon): 0.684 µM
- TGI (KM12 colon): 2.14 µM
- TGI (NCI-H226 lung): 7.94 µM
- TGI (NCI-H522 lung): 0.239 µM
- TGI (NCI/ADR-RES ovarian): 0.0653 µM
- TGI (SK-MEL-5 melanoma): 2.79 µM
- TGI (SK-OV-3 ovarian): 12 µM

Structure (SMILES): O=c1oc2cc(O)ccc2c(O)c1C(c1ccccc1F)c1c(O)c2ccc(O)cc2oc1=O
- TGI (A549 NSCLC): > 100 µM
- TGI (ACHN renal): > 100 µM
- TGI (BT-549 breast): 48.4 µM
- TGI (DU-145 prostate): > 100 µM
- TGI (HT29 colon): > 100 µM
- TGI (KM12 colon): > 100 µM
- TGI (NCI-H226 lung): > 100 µM
- TGI (NCI-H522 lung): > 100 µM
- TGI (NCI/ADR-RES ovarian): > 100 µM
- TGI (SK-MEL-5 melanoma): > 100 µM
- TGI (SK-OV-3 ovarian): > 100 µM

Structure (SMILES): O=C(O)Cc1cccc2c1OC(c1ccccc1)C(Cl)(C(=O)c1ccccc1)C2=O (stereo not given)
- TGI (A549 NSCLC): 86 µM
- TGI (ACHN renal): 26.9 µM
- TGI (BT-549 breast): > 100 µM
- TGI (DU-145 prostate): 65.3 µM
- TGI (HT29 colon): 30 µM
- TGI (KM12 colon): 50.6 µM
- TGI (NCI-H226 lung): 80.9 µM
- TGI (NCI-H522 lung): 29.6 µM
- TGI (NCI/ADR-RES ovarian): > 100 µM
- TGI (SK-MEL-5 melanoma): 28.6 µM
- TGI (SK-OV-3 ovarian): > 100 µM

Structure (SMILES): Cc1cccc2c(N)c3cccc(C(=O)NCC[N+](C)(C)Cc4c([N+](=O)[O-])ncn4C)c3nc12
- TGI (A549 NSCLC): > 47.9 µM
- TGI (ACHN renal): > 39.5 µM
- TGI (BT-549 breast): > 100 µM
- TGI (DU-145 prostate): > 100 µM
- TGI (HT29 colon): > 40.4 µM
- TGI (KM12 colon): > 100 µM
- TGI (NCI-H226 lung): > 100 µM
- TGI (NCI-H522 lung): > 52.9 µM
- TGI (NCI/ADR-RES ovarian): > 100 µM
- TGI (SK-MEL-5 melanoma): > 88.8 µM
- TGI (SK-OV-3 ovarian): > 71.1 µM

Structure (SMILES): CC1=CC(=O)N(n2c(Cc3ccccc3)n[nH]c2=O)C1=O
- TGI (A549 NSCLC): > 100 µM
- TGI (ACHN renal): > 100 µM
- TGI (BT-549 breast): > 100 µM
- TGI (DU-145 prostate): > 100 µM
- TGI (HT29 colon): > 100 µM
- TGI (KM12 colon): > 100 µM
- TGI (NCI-H226 lung): > 100 µM
- TGI (NCI-H522 lung): > 100 µM
- TGI (NCI/ADR-RES ovarian): > 100 µM
- TGI (SK-MEL-5 melanoma): > 100 µM
- TGI (SK-OV-3 ovarian): > 100 µM
